This passage reports IC50 results from ChEMBL document CHEMBL1131009, “Structure-activity relationship studies of novel carbocyclic influenza neuraminidase inhibitors” (J Med Chem, 1998).

pIC50: −log10 of the molar value.

In this assay the target is Neuraminidase (Influenza A virus (A/Puerto Rico/8/1934(H1N1)), UniProt P03468). Nature of the assay: Inhibitory activity against influenza A neuraminidase from influenza A/PR/8/34 (H1N1). Further details: species or system Influenza A virus (strain: A/PR/8/34).
Take `CC[C@@H](C)O[C@@H]1C=C(C(=O)O)C[C@H](N)[C@H]1NC(C)=O`: the negative-log IC50 (pIC50) (in general, the negative decadic logarithm of the IC50, by convention in mol/L) is 8.00.

`CCO[C@@H]1C=C(C(=O)O)C[C@H](N)[C@H]1NC(C)=O` gave a pIC50 of 5.70. This pIC50 is 2.30 log units lower than that of the molecule before.

Consider `CC(=O)N[C@@H]1[C@@H](N)CC(C(=O)O)=C[C@H]1OC(Cc1ccccc1)Cc1ccccc1`, for which the pIC50 is below 6.00.

`CCC(CC)O[C@@H]1C(F)=C(C(=O)O)C[C@H](N)[C@H]1NC(C)=O` had a pIC50 of 8.52.

Molecule `CCCCCCC[C@H](CC)O[C@@H]1C=C(C(=O)O)C[C@H](N)[C@H]1NC(C)=O` had a pIC50 of 9.00.

Consider `CC(=O)N[C@@H]1[C@@H](N)CC(C(=O)O)=C[C@H]1OCc1ccccc1`, for which the pIC50 is 6.21.

With `CCCO[C@@H]1C=C(C(=O)O)C[C@H](N=C(N)N)[C@H]1NC(C)=O`, the pIC50 is 8.70.

As for `CCC(CC)O[C@@H]1C=C(C(=O)O)[C@@H](C)[C@H](N)[C@H]1NC(C)=O`, the pIC50 is 5.82.

On to `CCCCCCCCCCO[C@@H]1C=C(C(=O)O)C[C@H](N)[C@H]1NC(C)=O`, for which the pIC50 is 6.22.

In turn, `CO[C@@H]1C=C(C(=O)O)C[C@H](N)[C@H]1NC(C)=O` showed a pIC50 of 5.43.

Molecule `CC(=O)N[C@H]1[C@H](O)C=C(C(=O)O)C[C@@H]1N=C(N)N` had a negative-log IC50 (pIC50) of 7.00. This pIC50 is 1.57 log units higher than that of the molecule before.

In turn, `CC[C@@H](CCC1CCCCC1)O[C@@H]1C=C(C(=O)O)C[C@H](N)[C@H]1NC(C)=O` showed a pIC50 of 9.00.

`CC[C@H](C)O[C@@H]1C=C(C(=O)O)C[C@H](N)[C@H]1NC(C)=O` had a pIC50 of 8.05.

With `CCCCCCCCCO[C@@H]1C=C(C(=O)O)C[C@H](N)[C@H]1NC(C)=O`, the pIC50 is 6.68.

As for `CC(=O)N[C@@H]1[C@@H](N)CC(C(=O)O)=C[C@H]1OC(CCCc1ccccc1)CCCc1ccccc1`, the pIC50 is below 6.00.

`CC[C@@H](CC1CCCCC1)O[C@@H]1C=C(C(=O)O)C[C@H](N)[C@H]1NC(C)=O` showed a pIC50 of 7.80.

For `CCC(CC)O[C@@H]1C(C)=C(C(=O)O)C[C@H](N)[C@H]1NC(C)=O`, the pIC50 is 5.64.

Consider `CCCO[C@@H]1C=C(C(=O)O)C[C@H](N)[C@H]1NC(C)=O`, for which the pIC50 is 6.74.

The molecule `CC[C@H](CCc1ccccc1)O[C@@H]1C=C(C(=O)O)C[C@H](N)[C@H]1NC(C)=O` had a pIC50 of 7.92.

`CC(=O)N[C@@H]1[C@@H](N)CC(C(=O)O)=C[C@H]1OCC(C)C` had a pIC50 of 6.70.

`CCCCO[C@@H]1C=C(C(=O)O)C[C@H](N)[C@H]1NC(C)=O`: the pIC50 was 6.52.

Molecule `CC(=O)N[C@@H]1[C@@H](N)CC(C(=O)O)=C[C@H]1OCCCc1ccc(-c2ccccc2)cc1` showed a negative-log IC50 (pIC50) of 7.05.

`CC(=O)N[C@H]1[C@H](O)C=C(C(=O)O)C[C@@H]1N` had a pIC50 of 5.20. This pIC50 is 1.85 log units lower than that of the molecule before.

`CC[C@@H](CCc1ccccc1)O[C@@H]1C=C(C(=O)O)C[C@H](N)[C@H]1NC(C)=O` had a negative logarithm of the IC50 (pIC50) of 9.52. This pIC50 is 4.32 log units higher than that of the molecule before.

In the case of `CCCCCCCCO[C@@H]1C=C(C(=O)O)C[C@H](N)[C@H]1NC(C)=O`, the pIC50 was 6.74.

`CCCCO[C@@H]1C=C(C(=O)O)C[C@H](N=C(N)N)[C@H]1NC(C)=O` showed a pIC50 of 8.52.

`CCCCCCCO[C@@H]1C=C(C(=O)O)C[C@H](N)[C@H]1NC(C)=O`: the pIC50 was 6.57. Compared with the last molecule, the pIC50 is 1.95 log units lower.

As for `CCCCCCO[C@@H]1C=C(C(=O)O)C[C@H](N)[C@H]1NC(C)=O`, the pIC50 was 6.82.

`CCCCCO[C@@H]1C=C(C(=O)O)C[C@H](N)[C@H]1NC(C)=O` gave a negative-log IC50 (pIC50) of 6.70. This pIC50 and that of the molecule before are within 0.2 log units of each other.

`CC[C@@H](C)O[C@@H]1C=C(C(=O)O)C[C@H](NC(=N)N)[C@H]1NC(C)=O` (stereo in doubt; 61): the pIC50 is 9.30. Against the preceding molecule, the pIC50 is 2.60 log units higher.
